We go through one compound from patent US9512086B2, “Compound for promoting apoptosis of cancer cells and a pharmaceutical composition containing the same and uses thereof” (National Chiao Tung University, priority 2014, dated 2016).

A value given as a limit tells only on which side of the number the result lay.

Data set [1] addresses T1, RET (product of ret proto-oncogene) (Homo sapiens, UniProt P07949).
T1 construct: purchased Merck Millipore (KinaseProfiler service)
The data set is described as follows: KinaseProfiler assay, RET. It counts as biochemical. The settings on record: read-out: KAR value (kinase activity remaining). From the text:
(§1) The kinase activity remaining (KAR) value is […] related to kinase activity. […]

Data set [2] has as its target T2, CSNK2A1 (casein kinase-2) (Homo sapiens, UniProt P68400).
T2 construct: purchased Merck Millipore (KinaseProfiler service)
In words: KinaseProfiler assay, CSNK2A1. It counts as biochemical. The conditions noted are these: read-out: KAR value (kinase activity remaining).
Source text: as §1

A further data set deals with caspase 3. The data set is described as follows: Western blot of active caspase 3 in A549 cells. The settings on record: 10-40 μM, 24 hours.
The target in data set [3] is T3, STK10 (lymphocyte-oriented kinase) (Homo sapiens, UniProt O94804).
T3 construct: purchased Merck Millipore (KinaseProfiler service)
The data set is described as follows: KinaseProfiler assay, STK10. The conditions noted are these: read-out: KAR value (kinase activity remaining). The class given is biochemical.
Source text: as §1

A further data set deals with PARP. In words: Western blot of cleaved PARP in A549 cells. The settings on record: 10-40 μM, 24 hours.
The subject of data set [4] is A549 cells. In words: Annexin V-PI apoptosis analysis by flow cytometry. The conditions noted are these: 10-40 μM for 24 hours. It counts as cell-based, human.
Method: The Annexin V-PI staining kit (BioVision, Mountain View, Calif.) was used to exam the cells by incubating with fluorescent isothiocyanate (FITC)-conjugated-Annexin V and PI according to the manufacturer's instruction. […] The cells were cultured in 60-mm Petri dish at a density of 7×10^5 cells for 16 to 20 hours. […] The cells were trypsinized and collected by centrifugation at 1500 rpm for 5 minutes. Thereafter, the cells were incubated with 500 μl Annexin V-PI labeling solution (containing 5 μl Annexin V-FITC and 5 μl PI in PBS) at room temperature in the dark for 5 minutes. To avoid cell aggregation, the cell solutions were filtered through a nylon mesh membrane (Becton-Dickinson, San Jose, Calif.). Finally, the samples were analyzed immediately using flow cytometer (FACS Calibur, BD Biosciences, Heidelberg, Germany). The percentage of Annexin V-PI staining cells was quantified from a minimum of 10,000 cells by CellQuest software (BD Biosciences).
In data set [5] the test system is survivin. The data set is described as follows: Western blot of survivin protein expression in A549 cells. The settings on record: 0 to 40 μM, 24 hours.
Method: (§3) The protease inhibitors including 1 μg/ml aprotinin, 0.5 μg/ml leupeptin, and 100 μg/ml 4-(2-aminoethyl)benzenesulfonyl fluoride were added to the cell suspensions. The lysates were vibrated for 30 minutes at 4° C. and centrifuged at 10,000 rpm for 10 minutes. The protein concentrations were determined by the BCA protein assay kit (Pierce, Rockford, Ill.). […] The membranes were blocked overnight at 4° C. using blocking buffer (5% non-fat dried milk in solution containing 50 mM Tris/HCl (pH 8.0), 2 mM CaCl2, 80 mM NaCl, 0.05% Tween 20 and 0.02% sodium azide). The membranes were sequentially hybridized with primary antibody and followed with a horseradish peroxidase-conjugated secondary antibody. The protein bands were visualized on the X-ray film using the enhanced chemiluminescence detection system (PerkinElmer Life and Analytical Sciences, Boston, Mass.). […] To verify equal protein loading and transfer, actin was used as the protein loading control. The gel digitizing software, Un-Scan-It gel (Ver. 5.1, Silk Scientific, Inc., Orem, Utah), was used to analyze the intensity of protein bands on X-ray film.
(§4) A549 cells were plated at a density of 1×10^6 cells per 60-mm Petri dish in complete medium for 16 to 20 hours. […] To verify equal protein loading and transfer, actin was used as the protein loading control.
The target in data set [6] is T4, SYK (splenic tyrosine kinase) (Homo sapiens, UniProt P43405).
T4 construct: purchased Merck Millipore (KinaseProfiler service)
The data set is described as follows: KinaseProfiler assay, SYK. The class given is biochemical. The settings on record: read-out: KAR value (kinase activity remaining).
Source text: as §1

For data set [7], the target named is T5, LIMK1 (LIM motif-containing protein kinase-1) (Homo sapiens, UniProt P53667).
T5 construct: purchased Merck Millipore (KinaseProfiler service)
The data set is described as follows: KinaseProfiler assay, LIMK1. The class given is biochemical. The settings on record: read-out: KAR value (kinase activity remaining).
Source text: as §1

The subject of data set [8] is A549 cells. In words: Cell cycle analysis, PI staining and flow cytometry. The settings on record: 40 μM, 24 hours, 60.5% before treatment. The class given is cell-based, human.
Method: After the treatment, the cells were collected and fixed with ice-cold 70% ethanol overnight at −20° C. After centrifugation at 1500 rpm for 5 minutes, the pellets were treated with 4 μg/ml PI solution containing 1% Triton X-100 and 50 μg/ml RNase at 37 °C for 30 minutes in the dark. To avoid cell aggregation, the cell solutions were filtrated through nylon membrane (Becton-Dickinson, San Jose, Calif.). Subsequently, the samples were analyzed by flow cytometry. For each measurement, 10,000 cells were analyzed for DNA content. The percentage of cell cycle phases was quantified by ModFit LT software (Ver. 2.0, Becton-Dickinson).
Data set [9] concerns survivin. In words: RT-PCR of survivin gene expression in A549 cells. It counts as cell-based, human. The settings on record: 0 to 40 μM, 24 hours. The protocol: After the treatment, total cellular RNA was purified by ZR RNA MiniPrep™ (Zymo Research, Irvine, Calif.) according to the manufacturer's protocol. RNA concentrations were determined by spectrophotometry. cDNAs were synthesized by SuperScript™ III reverse transcriptase with oligo (dT)12-18 primer (Invitrogen). Each reverse transcript was amplified with GAPDH as an internal control. Reverse transcription polymerase chain reaction (RT-PCR) was performed by a DNA thermal cycler (Mastercycler gradient, Hamburg, Germany). […] The conditions of RT-PCR are stated as followed: the initial denaturation was performed at 94° C. for 2 minutes, followed by 30 cycles at 94° C. for 30 seconds, 56° C. for 30 seconds, and 72° C. for 40 seconds; and 72° C. for 5 minutes. The PCR products were visualized on 1.2% agarose gels with ethidium bromide staining under UV transillumination, and photograph was taken by a camera DH27-S3 (Medclub, Taoyuan, Taiwan).

The target in another data set is T6, MARK2 (PAR-1Ba) (Homo sapiens, UniProt Q7KZI7).
T6 construct: purchased Merck Millipore (KinaseProfiler service)
In words: KinaseProfiler assay, MARK2. The conditions noted are these: read-out: KAR value (kinase activity remaining). The class given is biochemical.
Source text: as §1

The target of data set [10] is T7, FGFR1 (fibroblast growth factor receptor-1) (Homo sapiens, UniProt P11362).
T7 construct: purchased Merck Millipore (KinaseProfiler service)
The data set is described as follows: KinaseProfiler assay, FGFR1. The settings on record: read-out: KAR value (kinase activity remaining). The class given is biochemical.
Source text: as §1

Data set [11] has as its system A549 cells. In words: Cell growth, cell number by hemocytometer. The class given is cell-based, human. The conditions noted are these: 30 μM for 24 hours, then cultured 2-6 days.
Method: The cells were washed with PBS after the treatment. […] The cell number was calculated with hemocytometer.
For data set [12], the target named is T8, MKNK2 (MAPK-interacting kinase-2) (Homo sapiens, UniProt Q9HBH9).
T8 construct: purchased Merck Millipore (KinaseProfiler service)
In words: KinaseProfiler assay, MKNK2. It counts as biochemical. The conditions noted are these: read-out: KAR value (kinase activity remaining).
Source text: as §1

A further data set has as its system A549 cell line. The data set is described as follows: MTT cell viability, A549 cell line. The settings on record: Homo sapiens, A549 cell line, 24 hours, MTT. It counts as cell-based, human. How it is done: The above cell lines were plated in 96-well plates at a density of 1×10^4 cells/well for 16 to 20 hours. […] After drug treatment, the cell lines were washed with phosphate-buffered saline (hereinafter referred to PBS), and were replaced with fresh complete RPMI-1640 medium for 2 days. Thereafter, the medium was replaced and the cells were incubated with 0.5 mg/ml of 3-(4,5-dimethylthiazol-2-yl)-2,5-diphenyltetrazolium bromide reagent (hereinafter referred to MTT, Sigma Chemical Co., St. Louis, Mo.) in complete RPMI-1640 medium for 4 hours. The viable cells converted MTT to formazan that generates a blue-purple color when dissolved in dimethyl sulfoxide (hereinafter referred to DMSO). The intensity of formazan was measured at 565 nm using a plate reader (VERSAmax, Molecular Dynamics, Sunnyvale, Calif.). The relative percentage of cell viability was calculated by dividing the absorbance of treated cells by that of the control in each experiment.
(§2) After drug treatment, the cells were washed with PBS and replaced with fresh complete RPMI-1640 medium for 2 days. Thereafter, the medium was replaced and the cells were incubated with 0.5 mg/mL of MTT reagent (Sigma Chemical Co., St. Louis, Mo.) in complete RPMI-1640 medium for 4 hours. The intensity of formazan was measured at 565 nm using a plate reader (VERSAmax, Molecular Dynamics, Sunnyvale, Calif.). The relative percentage of cell viability was calculated by dividing the absorbance of treated cells by that of the control in each experiment.

In data set [13] the target is T9, MAPK14 (stress-activated protein kinase-2a) (Homo sapiens, UniProt Q16539).
T9 construct: purchased Merck Millipore (KinaseProfiler service)
The data set is described as follows: KinaseProfiler assay, MAPK14. The class given is biochemical. The conditions noted are these: read-out: KAR value (kinase activity remaining).
Source text: as §1

A short description of data set [14]: MTT cell viability, HFL1 normal lung fibroblasts. It counts as cell-based. The settings on record: human, HFL1 normal lung fibroblast cells, 0 to 40 μM. How it is done:
as §2

T1 sequence (P07949 29-1114): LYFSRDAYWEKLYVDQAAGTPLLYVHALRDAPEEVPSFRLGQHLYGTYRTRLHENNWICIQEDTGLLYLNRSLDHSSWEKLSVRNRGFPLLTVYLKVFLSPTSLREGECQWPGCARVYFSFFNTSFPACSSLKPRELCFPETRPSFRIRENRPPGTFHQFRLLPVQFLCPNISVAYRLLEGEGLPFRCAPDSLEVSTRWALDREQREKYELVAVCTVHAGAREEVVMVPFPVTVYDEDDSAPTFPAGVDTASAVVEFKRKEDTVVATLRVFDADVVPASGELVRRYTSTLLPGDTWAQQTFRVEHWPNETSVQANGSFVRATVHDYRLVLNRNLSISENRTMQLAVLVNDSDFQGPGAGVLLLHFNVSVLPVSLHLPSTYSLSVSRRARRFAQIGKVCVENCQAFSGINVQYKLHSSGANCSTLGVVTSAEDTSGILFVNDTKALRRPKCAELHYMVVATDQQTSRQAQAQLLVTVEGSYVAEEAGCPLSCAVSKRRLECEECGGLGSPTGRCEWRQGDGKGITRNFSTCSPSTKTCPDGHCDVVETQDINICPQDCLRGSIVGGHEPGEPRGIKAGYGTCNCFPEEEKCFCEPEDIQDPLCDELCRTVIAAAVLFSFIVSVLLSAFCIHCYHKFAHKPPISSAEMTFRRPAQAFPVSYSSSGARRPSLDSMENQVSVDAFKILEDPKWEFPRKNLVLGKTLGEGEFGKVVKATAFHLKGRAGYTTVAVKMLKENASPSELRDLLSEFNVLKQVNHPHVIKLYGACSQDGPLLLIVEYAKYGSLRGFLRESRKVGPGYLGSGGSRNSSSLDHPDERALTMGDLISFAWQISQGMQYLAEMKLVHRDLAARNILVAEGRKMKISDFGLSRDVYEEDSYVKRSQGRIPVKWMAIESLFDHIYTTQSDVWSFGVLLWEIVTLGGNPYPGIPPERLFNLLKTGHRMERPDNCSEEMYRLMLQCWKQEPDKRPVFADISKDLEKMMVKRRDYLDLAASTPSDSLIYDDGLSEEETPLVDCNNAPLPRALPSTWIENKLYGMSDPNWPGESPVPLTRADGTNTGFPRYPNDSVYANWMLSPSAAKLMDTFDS
T5 sequence (P53667 whole entry): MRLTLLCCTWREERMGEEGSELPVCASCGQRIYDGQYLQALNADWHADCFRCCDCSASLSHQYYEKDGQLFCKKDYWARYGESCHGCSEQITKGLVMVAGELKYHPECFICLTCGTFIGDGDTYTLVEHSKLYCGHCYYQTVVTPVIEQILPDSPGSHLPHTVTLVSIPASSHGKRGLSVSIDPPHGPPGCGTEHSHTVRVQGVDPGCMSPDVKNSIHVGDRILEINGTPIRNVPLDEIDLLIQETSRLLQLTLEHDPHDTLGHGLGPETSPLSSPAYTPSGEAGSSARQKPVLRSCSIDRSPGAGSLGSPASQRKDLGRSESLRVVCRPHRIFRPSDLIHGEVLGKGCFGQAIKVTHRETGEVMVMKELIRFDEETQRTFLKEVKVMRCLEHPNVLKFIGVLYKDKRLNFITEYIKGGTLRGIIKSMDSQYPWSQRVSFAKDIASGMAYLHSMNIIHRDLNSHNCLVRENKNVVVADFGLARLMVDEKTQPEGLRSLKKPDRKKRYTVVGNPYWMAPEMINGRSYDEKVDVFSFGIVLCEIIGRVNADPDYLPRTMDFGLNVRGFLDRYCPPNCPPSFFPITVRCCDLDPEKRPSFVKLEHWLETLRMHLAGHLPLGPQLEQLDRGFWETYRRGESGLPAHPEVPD
T2 sequence (P68400 whole entry): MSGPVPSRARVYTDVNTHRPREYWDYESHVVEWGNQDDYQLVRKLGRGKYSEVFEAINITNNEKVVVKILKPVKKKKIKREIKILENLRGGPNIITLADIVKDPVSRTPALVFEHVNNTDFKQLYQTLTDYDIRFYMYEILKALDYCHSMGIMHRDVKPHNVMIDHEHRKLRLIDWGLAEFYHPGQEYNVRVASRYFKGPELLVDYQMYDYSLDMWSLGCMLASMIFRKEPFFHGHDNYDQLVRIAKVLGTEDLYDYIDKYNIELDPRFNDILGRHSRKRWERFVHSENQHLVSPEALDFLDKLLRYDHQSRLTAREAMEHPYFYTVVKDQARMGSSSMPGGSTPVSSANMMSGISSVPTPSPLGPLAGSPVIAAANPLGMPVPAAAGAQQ
T6 sequence (Q7KZI7 1-725 isoform Q7KZI7-4): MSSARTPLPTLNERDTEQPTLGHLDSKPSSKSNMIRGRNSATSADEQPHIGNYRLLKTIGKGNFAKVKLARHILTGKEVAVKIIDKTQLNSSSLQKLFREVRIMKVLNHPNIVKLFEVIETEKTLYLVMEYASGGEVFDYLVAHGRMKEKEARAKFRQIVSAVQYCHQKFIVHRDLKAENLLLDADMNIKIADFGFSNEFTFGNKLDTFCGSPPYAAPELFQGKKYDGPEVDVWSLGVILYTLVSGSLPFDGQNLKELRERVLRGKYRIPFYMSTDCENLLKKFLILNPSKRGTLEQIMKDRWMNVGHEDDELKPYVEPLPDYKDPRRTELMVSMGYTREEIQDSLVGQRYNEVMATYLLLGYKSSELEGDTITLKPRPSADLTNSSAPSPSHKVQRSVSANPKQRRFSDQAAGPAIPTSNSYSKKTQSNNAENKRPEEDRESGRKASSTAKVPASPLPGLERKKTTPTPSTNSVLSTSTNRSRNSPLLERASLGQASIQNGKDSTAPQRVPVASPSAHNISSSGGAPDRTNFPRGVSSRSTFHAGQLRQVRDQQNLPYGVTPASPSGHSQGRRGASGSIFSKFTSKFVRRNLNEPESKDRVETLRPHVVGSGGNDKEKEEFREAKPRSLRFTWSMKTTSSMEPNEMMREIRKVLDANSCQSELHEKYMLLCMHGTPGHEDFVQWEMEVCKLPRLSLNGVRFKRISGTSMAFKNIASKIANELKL
T9 sequence (Q16539 whole entry): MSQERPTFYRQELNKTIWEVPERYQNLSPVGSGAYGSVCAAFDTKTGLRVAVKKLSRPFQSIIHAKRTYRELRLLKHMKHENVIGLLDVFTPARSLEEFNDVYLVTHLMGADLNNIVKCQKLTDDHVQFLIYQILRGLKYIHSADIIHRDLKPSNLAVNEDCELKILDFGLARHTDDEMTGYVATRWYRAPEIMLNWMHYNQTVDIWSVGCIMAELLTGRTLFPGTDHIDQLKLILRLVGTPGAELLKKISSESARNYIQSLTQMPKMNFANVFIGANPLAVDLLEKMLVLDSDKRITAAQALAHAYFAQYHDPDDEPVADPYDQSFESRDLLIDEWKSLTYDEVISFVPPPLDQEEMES
T3 sequence (O94804 whole entry): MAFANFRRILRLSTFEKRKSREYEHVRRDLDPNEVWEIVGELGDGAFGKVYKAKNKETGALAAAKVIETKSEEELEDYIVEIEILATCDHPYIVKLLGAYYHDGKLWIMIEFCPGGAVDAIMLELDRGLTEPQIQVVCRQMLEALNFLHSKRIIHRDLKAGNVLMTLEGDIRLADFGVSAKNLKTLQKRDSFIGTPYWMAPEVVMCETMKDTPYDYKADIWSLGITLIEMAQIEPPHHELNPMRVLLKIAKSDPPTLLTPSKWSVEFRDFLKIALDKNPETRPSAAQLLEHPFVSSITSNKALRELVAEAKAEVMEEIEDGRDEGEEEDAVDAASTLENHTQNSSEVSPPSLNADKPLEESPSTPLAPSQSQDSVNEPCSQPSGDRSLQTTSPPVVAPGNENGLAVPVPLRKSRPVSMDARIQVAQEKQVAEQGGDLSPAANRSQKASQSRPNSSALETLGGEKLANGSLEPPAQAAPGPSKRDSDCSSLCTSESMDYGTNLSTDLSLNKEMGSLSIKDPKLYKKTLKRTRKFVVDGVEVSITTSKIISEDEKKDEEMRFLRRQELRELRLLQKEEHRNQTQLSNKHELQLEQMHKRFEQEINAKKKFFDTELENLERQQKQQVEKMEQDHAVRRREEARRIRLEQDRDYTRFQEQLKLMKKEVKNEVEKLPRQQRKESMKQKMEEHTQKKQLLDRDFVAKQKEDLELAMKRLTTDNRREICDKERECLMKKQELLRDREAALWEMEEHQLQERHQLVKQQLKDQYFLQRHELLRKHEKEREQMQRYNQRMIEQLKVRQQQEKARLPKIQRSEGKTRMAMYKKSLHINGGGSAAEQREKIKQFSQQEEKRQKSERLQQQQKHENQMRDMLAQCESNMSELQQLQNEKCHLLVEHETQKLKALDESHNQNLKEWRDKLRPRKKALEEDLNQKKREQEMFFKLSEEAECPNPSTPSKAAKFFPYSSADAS
T7 sequence (P11362 22-822): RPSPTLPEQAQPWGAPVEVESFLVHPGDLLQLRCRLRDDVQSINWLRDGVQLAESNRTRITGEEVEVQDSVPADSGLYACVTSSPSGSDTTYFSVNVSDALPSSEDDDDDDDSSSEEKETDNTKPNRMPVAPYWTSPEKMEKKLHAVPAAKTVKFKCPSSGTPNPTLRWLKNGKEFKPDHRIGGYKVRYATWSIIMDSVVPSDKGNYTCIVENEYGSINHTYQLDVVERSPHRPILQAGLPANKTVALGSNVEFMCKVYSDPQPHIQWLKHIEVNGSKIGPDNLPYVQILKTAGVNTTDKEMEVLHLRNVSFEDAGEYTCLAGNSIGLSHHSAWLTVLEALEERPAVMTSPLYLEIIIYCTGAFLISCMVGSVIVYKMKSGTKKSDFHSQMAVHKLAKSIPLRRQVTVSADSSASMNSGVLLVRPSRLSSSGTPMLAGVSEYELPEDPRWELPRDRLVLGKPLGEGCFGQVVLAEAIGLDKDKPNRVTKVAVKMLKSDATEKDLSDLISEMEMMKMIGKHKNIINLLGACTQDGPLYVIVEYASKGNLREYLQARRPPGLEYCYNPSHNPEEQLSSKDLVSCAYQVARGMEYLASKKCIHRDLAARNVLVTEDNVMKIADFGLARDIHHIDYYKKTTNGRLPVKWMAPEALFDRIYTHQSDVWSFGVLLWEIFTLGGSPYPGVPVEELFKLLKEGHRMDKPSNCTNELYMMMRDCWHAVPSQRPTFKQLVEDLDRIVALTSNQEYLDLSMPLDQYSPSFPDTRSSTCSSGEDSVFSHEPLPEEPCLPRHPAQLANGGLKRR
Method for PARP: as §3, §4
Method for caspase 3: as §3, §4

Consider `COc1cc2ncnc(Nc3ccc(F)c(Cl)c3)c2cc1OCCCN1CCOCC1` [Iressa, Gefitinib, reference compound], for which the remaining activity at 10 µM was determined as 30% in data set [1]; 92% in data set [2]; 19% in data set [3]; 84% in data set [6]; 76% in data set [7]; 86% at MARK2 (PAR-1Ba). Moreover, the remaining activity at 10 µM in data set [10] was 27%; in data set [12] it was 9%; in [13], 20%. Further, the “active form of caspase 3” value with caspase 3 was “did not induce any significant change of caspase 3 and PARP”. The “cleaved form of PARP” value in the data set with PARP was “did not induce any significant change of caspase 3 and PARP”. The “average of total apoptosis” value in the data set with A549 cells [4] is recorded as “around 19.6%”. In addition, the survivin protein expression result in the data set on survivin [5] is “significantly inhibited surviving protein expression”. Further, the “average percentage of G1 fractions” value in the data set with A549 cells [8] is given as 76.1%. Further, the survivin gene expression result in the data set on survivin [9] is “no significant change”. In addition, the “cell growth of A549 cells” value in the data set with A549 cells [11] is recorded as “inhibit cell growth of A549 cells”. This compound also yielded a viability at 10 µM in the data set on A549 cell line (10 μM) of 86.7%. The same compound registered a viability at 20 µM in the data set on A549 cell line (20 μM) of 82.1%. The viability at 40 µM in the data set with A549 cell line (40 μM) is 74.3%. The compound also showed a viability at 60 µM with A549 cell line (60 μM) of 64.6%. In the data set with A549 cell line (80 μM), the viability at 80 µM was 60.8%. In [14], the viability at 24 h is > 30%.
